Laboratory results taken from US11213579B2, “Vaccines with enhanced immunogenicity, low allergenicity and reactogenicity” (priority 2018, dated 2022).

Tested on: P. aeruginosa 6616
Assay: Photodynamic inactivation of Pseudomonas aeruginosa, re-seeding on MHA to control inactivation
Assay type: cell-based
Conditions: initial dose 10 lg CFU/ml, 5 min, 500 μV/ml
[1] = photosensitizer 1 nM/L, 320 nm for flavins, 560 nm for phenothiazines and porphyrins
[2] = photosensitizer 5 nM/L, 320 nm for flavins, 560 nm for phenothiazines and porphyrins
[3] = photosensitizer 10 nM/L, 320 nm for flavins, 560 nm for phenothiazines and porphyrins
[4] = photosensitizer 20 nM/L, 320 nm for flavins, 560 nm for phenothiazines and porphyrins
[5] = photosensitizer 40 nM/L, 320 nm for flavins, 560 nm for phenothiazines and porphyrins
[6] = photosensitizer 80 nM/L, 320 nm for flavins, 560 nm for phenothiazines and porphyrins
[7] = photosensitizer 160 nM/L, 320 nm for flavins, 560 nm for phenothiazines and porphyrins
[8] = photosensitizer 320 nM/L, 320 nm for flavins, 560 nm for phenothiazines and porphyrins
[9] = photosensitizer 640 nM/L, 320 nm for flavins, 560 nm for phenothiazines and porphyrins
[10] = wavelength 180 nm, photoinactivator 40 μM/L
[11] = wavelength 220 nm, photoinactivator 40 μM/L
[12] = wavelength 260 nm, photoinactivator 40 μM/L
[13] = wavelength 320 nm, photoinactivator 40 μM/L
[14] = wavelength 360 nm, photoinactivator 40 μM/L
[15] = wavelength 400 nm, photoinactivator 40 μM/L
[16] = wavelength 440 nm, photoinactivator 40 μM/L
[17] = wavelength 480 nm, photoinactivator 40 μM/L
[18] = wavelength 520 nm, photoinactivator 40 μM/L
[19] = wavelength 560 nm, photoinactivator 40 μM/L
[20] = wavelength 600 nm, photoinactivator 40 μM/L
[21] = wavelength 640 nm, photoinactivator 40 μM/L
[22] = wavelength 680 nm, photoinactivator 40 μM/L
[23] = wavelength 720 nm, photoinactivator 40 μM/L
[24] = photosensitizer 1280 nM/L, 320 nm for flavins, 560 nm for phenothiazines and porphyrins

Compound	lg CFU/ml after treatment [1]	lg CFU/ml after treatment [2]	lg CFU/ml after treatment [3]	lg CFU/ml after treatment [4]	lg CFU/ml after treatment [5]	lg CFU/ml after treatment [6]	lg CFU/ml after treatment [7]	lg CFU/ml after treatment [8]	lg CFU/ml after treatment [9]	lg CFU/ml after treatment [10]	lg CFU/ml after treatment [11]	lg CFU/ml after treatment [12]	lg CFU/ml after treatment [13]	lg CFU/ml after treatment [14]	lg CFU/ml after treatment [15]	lg CFU/ml after treatment [16]	lg CFU/ml after treatment [17]	lg CFU/ml after treatment [18]	lg CFU/ml after treatment [19]	lg CFU/ml after treatment [20]	other results
C=Cc1c(C)c2cc3nc(c4c5[n-]c(cc6nc(cc1[n-]2)C(C)=C6CC)c(C)c5C(=O)[C@@H]4C(=O)OC)[C@@H](CCC(=O)OC/C=C(\C)CCC[C@H](C)CCC[C@H](C)CCCC(C)C)[C@@H]3C.[Mg+2] [Chlorophyll alpha (on TWEEN-80), Chlorophyll alpha]	2 lg CFU/ml	2 lg CFU/ml	1 lg CFU/ml	1 lg CFU/ml	0 lg CFU/ml	0 lg CFU/ml	0 lg CFU/ml	0 lg CFU/ml	0 lg CFU/ml	9 lg CFU/ml	9 lg CFU/ml	10 lg CFU/ml	10 lg CFU/ml	10 lg CFU/ml	9 lg CFU/ml	9 lg CFU/ml	6 lg CFU/ml	7 lg CFU/ml	0 lg CFU/ml	0 lg CFU/ml	lg CFU/ml after treatment [21]: 4 lg CFU/ml; lg CFU/ml after treatment [22]: 6 lg CFU/ml; lg CFU/ml after treatment [23]: 9 lg CFU/ml
Cc1cc(=[N+](C)C)cc2sc3cc(N(C)C)cc(C)c3nc1-2.[Cl-] [Dimethylmethylene blue]	2 lg CFU/ml	1 lg CFU/ml	1 lg CFU/ml	1 lg CFU/ml	0 lg CFU/ml	0 lg CFU/ml	0 lg CFU/ml	0 lg CFU/ml	0 lg CFU/ml												lg CFU/ml after treatment [24]: 1 lg CFU/ml
C=CC1=C(C)c2cc3[n-]c(cc4[n-]c(cc5nc(cc1n2)C(C)=C5C=C)c(C)c4CCC(=O)O)c(CCC(=O)O)c3C.[Fe+2] [Heme]	3 lg CFU/ml	2 lg CFU/ml	2 lg CFU/ml	1 lg CFU/ml	0 lg CFU/ml	0 lg CFU/ml	0 lg CFU/ml	0 lg CFU/ml	0 lg CFU/ml												
CN(C)c1ccc2nc3ccc(=[N+](C)C)cc-3sc2c1 [Methylene blue]	6 lg CFU/ml	2 lg CFU/ml	1 lg CFU/ml	1 lg CFU/ml	0 lg CFU/ml	0 lg CFU/ml	0 lg CFU/ml	0 lg CFU/ml	0 lg CFU/ml	10 lg CFU/ml	9 lg CFU/ml	8 lg CFU/ml	9 lg CFU/ml	9 lg CFU/ml	9 lg CFU/ml	9 lg CFU/ml	7 lg CFU/ml	4 lg CFU/ml	3 lg CFU/ml	3 lg CFU/ml	lg CFU/ml after treatment [24]: 2 lg CFU/ml; lg CFU/ml after treatment [21]: 0 lg CFU/ml; lg CFU/ml after treatment [22]: 0 lg CFU/ml; lg CFU/ml after treatment [23]: 0 lg CFU/ml
